Measured values as given in PubChem BioAssay AID489006 (Sanford-Burnham Center for Chemical Genomics, 2010).
Calls of active or inactive are those of the source. How the calls were made is not given here.

System: Jurkat NF-kB reporter, luminescence
Experiment: Jurkat NF-kB signaling inhibitors – cell-based, luminescence, selectivity assay for B-cell receptor NF-kB inhibitor project, dose response (AID 489006)

| SMILES | IC50 |
| --- | --- |
| N#CC1=C(N)Oc2cc(Nc3ccccc3)ccc2C1c1ccncc1 (stereo not given) | 60.6 µM (inactive) |
| CC1=CC(C)(C)Nc2ccc(OC(=O)c3ccco3)cc21 | 1.4 µM |
| COc1ccc(-c2noc(N3CCC(C(=O)Nc4ccc(F)cc4F)CC3)n2)cc1 | > 80 µM (inactive) |
| CCOc1ccc(-n2c(SCC(=O)Nc3ccc4c(c3)OCCO4)nc3c(c2=O)SCC3)cc1 | > 80 µM (inactive) |
| COc1ccc(OC)c(C2CC(=O)Nc3cc(OC)c(OC)c(OC)c32)c1 (stereo not given) | > 80 µM (inactive) |
| CC(C)N1C(=O)S/C(=C/c2ccc3c(c2)n(C)c(=O)n3C)C1=O | > 80 µM (inactive) |
| CCn1c(=O)cc(OCC(=O)NCc2ccc(C)o2)c2ccccc21 | > 80 µM (inactive) |
| C=CCn1c(O)c(C(C)=NC(C)c2ccccc2)c(=O)[nH]c1=O (stereo not given) | > 80 µM (inactive) |
| COc1cc(-c2cc(=O)c3c(O)c(OC)c(OC)c(OC)c3o2)cc(OC)c1OC | > 80 µM (inactive) |
| CC(C)(C)C(=O)/C(=C/c1ccncc1)n1cncn1 | 2.89 µM |
| CCc1ccc(/C=C2/SC(=S)N(CCC(=O)Nc3ccc(C(=O)O)cc3)C2=O)cc1 | > 80 µM (inactive) |
| Cc1cc(C)cc(OCc2nnc(SCC(=O)c3ccccc3)o2)c1 | > 80 µM (inactive) |
| CCSc1ncc(Cl)c(C(=O)Nc2sc3c(c2C(=O)NCc2cccnc2)CCCC3)n1 | > 80 µM (inactive) |
| CCN1C(=O)Nc2cccc3cccc1c23 | 36.2 µM (inactive) |
| O=C(O)CCSc1nc2ccccc2s1 | 6.75 µM |
| CN(C)C(=O)CCc1nc(-c2ccc(C(C)(C)C)cc2)no1 | > 80 µM (inactive) |
| COc1cc(OC)cc(-c2cc3nc(C)c(CCC(=O)NCc4ccccc4)c(C)n3n2)c1 | 2.75 µM |
| Cc1cc(N(C)C)ccc1N=Nc1ccc(N)cc1 | > 80 µM (inactive) |
| COC(=O)C(C)Oc1cc(C)cc2oc(=O)c3c(c12)CCC3 (stereo not given) | 49.9 µM (inactive) |
| CCOc1ccc(-c2nnc(SCC(=O)NC3CC3)o2)cc1 | 54.2 µM (inactive) |
| COc1ccc(-c2ccc(N(C)C)cc2)cc1[C@H]1[C@H]2C=CC[C@@H](C)[C@@H]2C(=O)N1Cc1ccccc1 | > 80 µM (inactive) |
| COc1ccc(NC(=O)c2nnn(Cc3cccc(F)c3)c2N)c(OC)c1 | > 80 µM (inactive) |
| Cn1nc(-c2ccc(Cl)cc2)c2cc(C(=O)N3CCCC3)sc21 | > 80 µM (inactive) |
| Cc1cc(OC(=O)c2ccccc2Cl)cc(=O)n1C | > 80 µM (inactive) |
| COc1ccc(OCc2cccc(C(=O)Nn3cc([N+](=O)[O-])cn3)c2)cc1 | 1.85 µM |

| SMILES | IC50 |
| --- | --- |
| CCCCOc1ccc(NC(=O)C(=O)NCCCn2ccnc2)cc1 | > 80 µM (inactive) |
| O=C(CN1C(=O)c2ccccc2S1(=O)=O)c1ccc(OC(F)F)cc1 | 3.15 µM |
| Cc1ccc(Nc2nc(N/N=C\c3ccc4c(c3)OCO4)nc(N3CCOCC3)n2)cc1 | 70.3 µM (inactive) |
| Cc1nc2cc(-c3ccccc3)nn2c(C)c1CCC(=O)N1CCC2(CC1)OCCO2 | > 80 µM (inactive) |
| CNC(=O)c1cccn(Cc2ccc(C(F)(F)F)cc2)c1=O | 20.9 µM (inactive) |
| CC1Cc2ccccc2N1S(=O)(=O)c1cnc(Cl)c(Cl)c1 (stereo not given) | 31.6 µM (inactive) |
| C/C=C(/C)C(=O)OC1Cc2c(ccc3ccc(=O)oc23)OC1(C)C (stereo not given) | > 80 µM (inactive) |
| Cn1c(=O)cc(SCC(=O)N2CCCC2)c2cc(Cl)ccc21 | > 80 µM (inactive) |
| Cc1cc(OCC(=O)N2CCC(C(N)=O)CC2)c2c3c(c(=O)oc2c1)CCCC3 | > 80 µM (inactive) |
| COc1ccc(C(C(=O)NC2CCCCC2)N(C(=O)CCl)c2ccc(OC)cc2)cc1 (stereo not given) | 0.65 µM |
| CCC(C)N1C(=O)/C(=C/c2c(NCCCOC(C)C)nc3c(C)cccn3c2=O)SC1=S (stereo not given) | > 80 µM (inactive) |
| Nc1ccccc1SCC(=O)Nc1nc(-c2ccccc2)cs1 | > 80 µM (inactive) |
| COc1ccc(N(CC(=O)N2CCN(c3ccc(Cl)cc3)CC2)S(=O)(=O)c2c(C)n[nH]c2C)cc1 | > 80 µM (inactive) |
| CCc1ccc(/C=C2/SC(=S)N(CCC(=O)Nc3cccc(C(=O)O)c3)C2=O)cc1 | > 80 µM (inactive) |
| Cn1nc(-c2ccc(N3CCOCC3)c(NS(=O)(=O)c3ccccc3)c2)c2ccccc2c1=O | > 80 µM (inactive) |
| CC(C)C[C@@H](N)c1nnc(SCC(=O)c2ccc(Cl)cc2)o1 | 11.3 µM |
| CCCCn1c2c(c(=N)c3ccccc31)CCC2 | > 80 µM (inactive) |
| CCN1C(=O)c2cccc3c(S(=O)(=O)Nc4ccccn4)ccc1c23 | 40.5 µM (inactive) |
| Cc1ccc(Nc2nc(N3CCOCC3)nc(N3CCOCC3)n2)cc1C | > 80 µM (inactive) |
| COC(=O)c1[nH]c2ccc(C)cc2c1NC(=O)Nc1ccccc1OC | 55.2 µM (inactive) |
| Cc1c(CCC(=O)N2CCC(C(=O)O)CC2)c(=O)oc2cc3oc4c(c3cc12)CCCC4 | > 80 µM (inactive) |
| CCOC(=O)Cc1csc(NC(=S)NC(=O)c2ccc(Cl)cc2)n1 | 3.85 µM |
| CCOc1ccc(-c2cc(CCCC(=O)NCc3ccc(C)cc3)no2)cc1 | 6.59 µM |
| C=CCOc1ccc(NC(=O)C(=O)NCCCn2ccnc2)cc1 | > 80 µM (inactive) |
| C=CCOc1ccc(/C=C2\SC(=S)N(CCC(=O)O)C2=O)cc1 | < 0.16 µM |

| SMILES | IC50 |
| --- | --- |
| Cc1ccc(/C=C2\SC(=S)N(CCCC(=O)Nc3ccccn3)C2=O)cc1 | 0.76 µM |
| O=C(NCCCN1CCOCC1)c1cc(-c2ccc(Br)cc2)on1 | 59.5 µM (inactive) |
| CC(=O)c1cn(CCOc2cc(C)ccc2C)c2ccccc12 | > 80 µM (inactive) |
| Cc1ccc(C)c(-n2nnnc2Sc2nnnn2-c2ccccc2)c1 | 1.42 µM |
| COc1ccc(-c2nc(CSCC(=O)NCc3ccco3)c(C)o2)cc1 | 66.8 µM (inactive) |
| CC1CC(C)CN(S(=O)(=O)c2ccc(C(=O)NCCCn3ccnc3)cc2)C1 (stereo not given) | 54.6 µM (inactive) |
| CCN(CC(=O)Nc1c(F)cccc1F)C(=O)c1cc(S(=O)(=O)N(CC)CC)ccc1N1CCCCC1 | > 80 µM (inactive) |
| COc1cccc(/C=C2/SC(=S)N(CCCC(=O)Nc3ccc(O)cc3)C2=O)c1 | 29.5 µM (inactive) |
| COc1ccc(C(=O)Nc2nnc(SCC(=O)Nc3ccc(NC(C)=O)cc3)s2)c(OC)c1 | > 80 µM (inactive) |
| CC(C)Cn1c([N+](=O)[O-])nc2c1c(=O)[nH]c(=O)n2C | 7.23 µM |
| Cc1ccccc1-n1c(SCc2c(C)noc2C)nnc1-c1c[nH]c2ccccc12 | > 80 µM (inactive) |
| CC1CCN(C(=O)CCCOc2cc(=O)n(C)c3ccccc23)CC1 | > 80 µM (inactive) |
| Cc1nc2cc(-c3ccc(Cl)cc3)nn2c(C)c1CCC(=O)NC(C)c1ccc2c(c1)OCCO2 (stereo not given) | 0.7 µM |
| COc1ccc(C(=O)n2nc(-c3ccc(Cl)cc3)nc2N)cc1OC | 2.9 µM |
| CCOC(=O)c1nn(-c2ccccc2)c(C#N)c1NC(=O)c1nn(CC)cc1Br | > 80 µM (inactive) |
| O=C(N/N=C/c1ccc(Cl)cc1Cl)c1ccc(-n2cnnn2)cc1 | > 80 µM (inactive) |
| N=c1c2c(n(Cc3ccc(Cl)c(Cl)c3)c3c1CCC3)CCCC2 | 9.18 µM |
| CC1=CC(C)(C)Nc2ccc(OC(=O)CN3C(=O)c4ccccc4C3=O)cc21 | 1.28 µM |
| Cc1ccc(NC(=O)C2CCC(CNc3c(N4CCC(C)CC4)c(=O)c3=O)CC2)cc1F (stereo not given) | > 80 µM (inactive) |
| N#Cc1ccccc1COc1ccc(/C=C/C(=O)O)cc1 | 1.48 µM |
| Cc1ccc(/C=C2\SC(=S)N(CCCC(=O)Nc3cccnc3)C2=O)cc1 | 6.11 µM |
| COc1ccc(NS(=O)(=O)c2ccc(-c3coc(C)n3)cc2)cc1OC | > 80 µM (inactive) |
| O=C(CCCN1C(=O)/C(=C/c2ccccc2Cl)SC1=S)NNC(=O)c1ccncc1 | 7.79 µM |
| Cc1ccc(C(=O)CSc2nnc(COc3cccc(C)c3)o2)cc1 | > 80 µM (inactive) |
| CCN(CC)CCOC(=O)c1ccc(NC(=O)CCCN2C(=O)S/C(=C/c3ccc(OC)cc3)C2=S)cc1 | 1.48 µM |

| SMILES | IC50 |
| --- | --- |
| COc1ccc(C(=O)Nc2cccc(NC(=O)c3ccc(OC)c(OC)c3)n2)cc1OC | 9.7 µM |
| CCOC(=O)/C=C(\C)Sc1cc(=O)oc2ccccc12 | 4 µM |
| Cc1nn(-c2ccc(N3CCCCC3)nn2)c(C)c1CCC(=O)Nc1ccccc1F | 71.1 µM (inactive) |
| O=C(NCCC1CCCCN1S(=O)(=O)c1ccc(Cl)cc1)C(=O)NCc1ccncc1 (stereo not given) | > 80 µM (inactive) |
| Cc1ccc(/C=C2/SC(=S)N(CCCC(=O)Nc3ccc(O)cc3)C2=O)cc1 | 19.8 µM |
| Cc1ccc(-c2cc(C(=O)NCCCN3CCOCC3)no2)cc1 | 15.2 µM |
| CCn1c(=O)c2cc(C(=O)NCc3cccs3)sc2c2ccccc21 | > 80 µM (inactive) |
| O=C(CCCN1C(=O)S/C(=C/C=C/c2ccccc2)C1=O)Nc1ccc(C(=O)O)cc1 | > 80 µM (inactive) |
| Oc1cc(O)cc(-c2cc3ccc(O)cc3o2)c1 | > 80 µM (inactive) |
| Cc1cccc(C(=O)Nc2ccc(CC(=O)O)cc2)c1 | 7.41 µM |
| N=c1ccn2c(n1)O[C@H]1[C@H](O)[C@@H](CO)O[C@H]12 | 0.64 µM |
| CCC(=O)N1c2ccccc2C(N(C(C)=O)c2ccccc2)CC1C (stereo not given) | > 80 µM (inactive) |
| COc1ccc(/C=N\NC(=O)c2sccc2C)cc1Cn1nc(C)cc1C | > 80 µM (inactive) |
| CC(C)c1ccc(/C=C2\SC(=S)N(CCC(=O)NCCCn3ccnc3)C2=O)cc1 | 2.64 µM |
| COc1ccc(-n2c(-c3ccc(Cl)cc3)c[n+]3c2CCc2ccccc2-3)cc1 | 28.6 µM (inactive) |
| COc1ccc(-c2n(Cc3ccccc3)c3ccccc3[n+]2Cc2ccccc2)cc1 | 42.7 µM (inactive) |
| COc1cccc(-c2noc(CCC(=O)NCCc3ccccc3)n2)c1 | 29.8 µM (inactive) |
| O=C(Nc1ccc(NC(=O)c2cc3ccccc3o2)cc1)c1ccc2c(c1)OCCO2 | > 80 µM (inactive) |
| Cc1cc(C)nc(Sc2ccc([N+](=O)[O-])cc2[N+](=O)[O-])n1 | 11.7 µM |
| Fc1ccc(C2=Nn3c(nnc3-c3n[nH]c4c3CCC4)SC2)cc1 | > 80 µM (inactive) |
| NNC(=O)COc1ccc(-c2nccc(-c3ccc(F)cc3)n2)cc1 | 1.79 µM |
| O=C1NC[C@H](c2ccccc2)OC(=O)[C@@H](Cc2ccc(F)cc2)C/C=C\C[C@H]1CC(=O)N(CCO)Cc1ccccc1 | 11.8 µM |
| Cc1ccccc1Nc1nc(Cl)c(C=O)s1 | > 80 µM (inactive) |
| Cc1ccc(NC(=O)O/N=C/c2c(C)nn(C(C)(C)C)c2C)cc1Cl | < 0.16 µM |
| COc1cc(OC)c(/C=N/NC(N)=S)cc1Br | > 80 µM (inactive) |
